Key:
[1] = test system: fully amygdala kindled rats; assay: Seizures in fully amygdala kindled rats (GST stimulation); assay type: in vivo, rat; settings: for Change of ADD (%): afterdischarge duration before administration = 100; for Change of MSD (%): motor seizure duration before administration = 100
Protocol: [Method for preparing a kindling model] Male Wistar rats (weight: 200-250 g, Tokyo Jikken Dobutsu) were used, and pentobarbital (50 mg/kg, Dinabot) and ketamine (50 mg/kg, Sankyo Co., Ltd.) were used as anesthetic agents.
A dose-response of nefiracetam (15-180 mg/kg) with respect to a kindling seizure induced GTS stimulation intensity was evaluated in terms of the following parameters: seizure stage, and afterdischarge duration at the sitimulated amygdala and motor seizure duration.
In accordance with the method of Racine et al. (Modification of seizure activity by electrical stimulation: II motor seizure. Electroencephalography Clin. Neurophysiol. 1972. 32: 281-294), seizures were classified into the following five stages: stage 1 (chewing); stage 2 (head nodding); stage 3 (forelimb clonus); stage 4 (rearing); and stage 5 (rearing and falling).
Motor seizure duration (seconds) was represented by the total duration of stages 3 through 5. Stage 1 or Stage 2 is a seizure symptom of the limbic system, and Stage 3, 4, or 5 is regarded a motor seizure (Sato, M., Racine, R. J., McIntyre, D. C., Kindling: basic mechanisms and clinical validity, Electroencephalography Clin. Neurophysiol. 1990, 76: 459-472).
Afterdischarge duration (seconds) was recorded by use of an electrode for recording, and was represented by the seizure-discharge duration shown in a electroencephalogram, which is induced by a kindling stimulation. Nefiracetam was dissolved into a solvent (0.5% carboxymethyl cellulose) and the solution was administered orally 90 minutes before GST stimulation, wherein the amount of administered nefiracetam is classified into several stages within a range of 15-180 mg/kg.
[Method] The rats used in this Example were of the same type in terms of the source of purchase, body weight, and age (week). For each rat, in the same manner as in of Example 1, there were performed anesthetization, setting of an electrode on the amygdala, fixation of the electrode at the cranial bone, and a kindling stimulation (50 Hz, sine wave).
For non-administered rats and nefiracetam-administered rats (120 mg/kg), the effect of the administration was evaluated when GST stimulation intensity was increased by a factor of two (GST 2) or three (GST 3). The effect of 120 mg/kg of nefiracetam on kindling seizures induced by one-fold, two-fold, and three-fold GTS stimulation was evaluated in terms of the following parameters: seizure stage, motor seizure duration, and afterdischarge duration.

[2] = test system: kainate-induced cortical focal seizures; assay: Local cerebral glucose metabolism during kainate-induced cortical focal seizures; assay type: in vivo, rat; design: key to Change in local cerebral glucose metabolism rate: →: no change; →↓: decreased in a low degree; ↓: decreased in a moderate degree; ↓↓: decreased in a high degree; settings: for Change in local cerebral glucose metabolism rate: 100 mg/kg i.v.
Protocol: [Method] A cannula was set in the left sensorimotor area of rats, and kinic acid was injected so as to induce seizures through the same manner as described in the experiment of I-1. Subsequently, a nefiracetam solution (100 mg/kg) was intravenously injected into each rat. After 60 minutes, [^14C] deoxyglucose was intravenously injected, and autoradiograms were produced through the same procedure as described in the experiment of I-2. A glucose utilization rate of each intracerabral structure was compared with that of the control group.

SMILES: Cc1cccc(C)c1NC(=O)CN1CCCC1=O [nefiracetam, N-(2,6-dimethylphenyl)-2-(2-oxo-1-pyrrolidinyl)acetamide]
- Change of stage (%) ([1]; 15 mg/kg p.o. 90 min before GST stimulation, seizure stage before administration = 100): 80.0%
- Change of ADD (%) ([1]; 15 mg/kg p.o.): 81.7%
- Change of stage (%) ([1]; 30 mg/kg p.o. 90 min before GST stimulation, seizure stage before administration = 100): 100.0%
- Change of ADD (%) ([1]; 30 mg/kg p.o.): 99.9%
- Change of stage (%) ([1]; 60 mg/kg p.o. 90 min before GST stimulation, seizure stage before administration = 100): 80.0%
- Change of ADD (%) ([1]; 60 mg/kg p.o.): 83.9%
- Change of stage (%) ([1]; 90 mg/kg p.o. 90 min before GST stimulation, seizure stage before administration = 100): 76.0%
- Change of ADD (%) ([1]; 90 mg/kg p.o.): 82.3%
- Change of stage (%) ([1]; 120 mg/kg p.o. 90 min before GST stimulation, seizure stage before administration = 100): 13.3%
- Change of ADD (%) ([1]; 120 mg/kg p.o.): 25.0%
- Effect on afterdischarge duration ([1]; 120 mg/kg, 3-times-GST stimulation intensity): the afterdischarge duration was restored
- Change of stage (%) ([1]; 120 mg/kg, GST intensity 1-fold, before administration = 100): 16.7%
- Change of MSD (%) ([1]; 120 mg/kg, GST intensity 1-fold): 11.1%
- Change of stage (%) ([1]; 120 mg/kg, GST intensity 2-fold, before administration = 100): 14.7%
- Change of MSD (%) ([1]; 120 mg/kg, GST intensity 2-fold): 15.2%
- Change of stage (%) ([1]; 120 mg/kg, GST intensity 3-fold, before administration = 100): 52.0%
- Change of MSD (%) ([1]; 120 mg/kg, GST intensity 3-fold): 43.8%
- Effect on afterdischarge duration ([1]; 120 mg/kg, one-fold GST stimulation intensity): significant and strong inhibition
- Effect on afterdischarge duration ([1]; 120 mg/kg, two-fold GST stimulation intensity): an effect on afterdischarge duration was reduced
- Change of stage (%) ([1]; 180 mg/kg p.o. 90 min before GST stimulation, seizure stage before administration = 100): 36.0%
- Change of ADD (%) ([1]; 180 mg/kg p.o.): 24.8%
- Effect on seizure stage, motor seizure duration and afterdischarge duration ([1]; 15-180 mg/kg p.o., GST stimulation): dose-dependent inhibition
- ED50 (effect on seizure stage) ([1]; regression curve by least-squares method, p.o., fully kindled rats): 114 mg/kg
- Hypermetabolism in non-focal sensorimotor area, caudatum-putamen, thalamus and hippocampus in both sides ([2]; 100 mg/kg i.v. during seizures): hypermetabolism is suppressed remarkably
- Change in local cerebral glucose metabolism rate ([2]; Amygdala, focal side): →↓
- Change in local cerebral glucose metabolism rate ([2]; Amygdala, non-focal side): →↓
- Change in local cerebral glucose metabolism rate ([2]; Brain stem reticular formation, focal side): →↓
- Change in local cerebral glucose metabolism rate ([2]; Brain stem reticular formation, non-focal side): →↓
- Change in local cerebral glucose metabolism rate ([2]; Candatum-putamen, focal side): ↓
- Change in local cerebral glucose metabolism rate ([2]; Candatum-putamen, non-focal side): ↓↓
- Change in local cerebral glucose metabolism rate ([2]; Cerebellar cortex, focal side): →
- Change in local cerebral glucose metabolism rate ([2]; Cerebellar cortex, non-focal side): →
- Change in local cerebral glucose metabolism rate ([2]; Corpus callosum, focal side): →
- Change in local cerebral glucose metabolism rate ([2]; Corpus callosum, non-focal side): →
- Change in local cerebral glucose metabolism rate ([2]; Frontal lobe cortex, focal side): →↓
- Change in local cerebral glucose metabolism rate ([2]; Frontal lobe cortex, non-focal side): ↓
- Change in local cerebral glucose metabolism rate ([2]; Hypothalamaus, focal side): ↓
- Change in local cerebral glucose metabolism rate ([2]; Hypothalamaus, non-focal side): ↓
- Change in local cerebral glucose metabolism rate ([2]; Occipital lobe cortex, focal side): →↓
- Change in local cerebral glucose metabolism rate ([2]; Occipital lobe cortex, non-focal side): ↓
- Change in local cerebral glucose metabolism rate ([2]; Parietal lobe cortex, focal side): ↓
- Change in local cerebral glucose metabolism rate ([2]; Parietal lobe cortex, non-focal side): ↓↓
- Change in local cerebral glucose metabolism rate ([2]; Sensorimotor area cortex, focal side): →↓
- Change in local cerebral glucose metabolism rate ([2]; Sensorimotor area cortex, non-focal side): ↓
- Change in local cerebral glucose metabolism rate ([2]; Septal area, focal side): →↓
- Change in local cerebral glucose metabolism rate ([2]; Septal area, non-focal side): →↓
- Change in local cerebral glucose metabolism rate ([2]; Substantia nigra, focal side): →↓
- Change in local cerebral glucose metabolism rate ([2]; Substantia nigra, non-focal side): →↓
- Change in local cerebral glucose metabolism rate ([2]; Teniporal lobe cortex, focal side): →↓
- Change in local cerebral glucose metabolism rate ([2]; Teniporal lobe cortex, non-focal side): ↓
- Change in local cerebral glucose metabolism rate ([2]; Thalamus, focal side): →↓
- Change in local cerebral glucose metabolism rate ([2]; Thalamus, non-focal side): ↓
- Change in local cerebral glucose metabolism rate ([2]; hippocampus, focal side): ↓↓
- Change in local cerebral glucose metabolism rate ([2]; hippocampus, non-focal side): ↓↓
